Molecules are shown by their SMILES.

Data on 1 compound can be found in PMC5218480 (PLoS ONE, 2017).

For the assay, the system named is MV-4-11 cells. The experiment in a line: Gene expression microarray analysis (Affymetrix PrimeView) and GSEA. The format is cell-based, human. Set-up: RFU PODN (11730768_x_at) / Fold change /veh PODN (11730768_x_at) / RFU LINC00158 (11744669_a_at) / Fold change /veh LINC00158 (11744669_a_at) / RFU DUSP10 (11751237_a_at) / Fold change /veh DUSP10 (11751237_a_at) / RFU ID3 (11757404_x_at) / Fold change /veh ID3 (11757404_x_at) / RFU PLEKHG5 (11737974_s_at) / Fold change /veh PLEKHG5 (11737974_s_at) / RFU LRRC4B (11730491_at) / Fold change /veh LRRC4B (11730491_at) / RFU GIMAP4 (11747438_a_at) / Fold change /veh GIMAP4 (11747438_a_at) / RFU KRT8 (11758183_x_at) / Fold change /veh KRT8 (11758183_x_at) / RFU CNN1 (11734310_a_at) / Fold change /veh CNN1 (11734310_a_at) / RFU VPS37D (11726825_at) / Fold change /veh VPS37D (11726825_at) / RFU C10orf10 (11716522_x_at) / Fold change /veh C10orf10 (11716522_x_at) / RFU KIR2DL2 /// KIR2DL4 /// KIR2DL5A /// KIR2DL5B /// KIR2DS1 /// KIR2DS2 /// KIR2DS3 /// KIR2DS4 /// KIR3DL3 /// KIR3DL3 /// KIR3DS1 (11738374_at) / Fold change /veh KIR2DL2 /// KIR2DL4 /// KIR2DL5A /// KIR2DL5B /// KIR2DS1 /// KIR2DS2 /// KIR2DS3 /// KIR2DS4 /// KIR3DL3 /// KIR3DL3 /// KIR3DS1 (11738374_at) / RFU C1QL1 (11718748_at) / Fold change /veh C1QL1 (11718748_at) / RFU TMPRSS4 (11747572_a_at) / Fold change /veh TMPRSS4 (11747572_a_at) / RFU HAMP (11756126_x_at) / Fold change /veh HAMP (11756126_x_at) / RFU RNFT2 (11725882_a_at) / Fold change /veh RNFT2 (11725882_a_at) / RFU NR4A2 (11747474_a_at) / Fold change /veh NR4A2 (11747474_a_at) / RFU ABCC12 (11746883_a_at) / Fold change /veh ABCC12 (11746883_a_at) / RFU TMEM136 (11760407_x_at) / Fold change /veh TMEM136 (11760407_x_at) / RFU CLDN22 /// WWC2 (11732394_at) / Fold change /veh CLDN22 /// WWC2 (11732394_at) / RFU HLA-DPB1 (11760878_x_at) / Fold change /veh HLA-DPB1 (11760878_x_at) / RFU SPINT1 (11716480_a_at) / Fold change /veh SPINT1 (11716480_a_at) / RFU GAP43 (11754022_s_at) / Fold change /veh GAP43 (11754022_s_at) / RFU A4GNT (11735810_at) / Fold change /veh A4GNT (11735810_at) / RFU PRB3 (11715151_x_at) / Fold change /veh PRB3 (11715151_x_at) / RFU TUBB4B (11761932_at) / Fold change /veh TUBB4B (11761932_at) / RFU CAPN14 (11732068_a_at) / Fold change /veh CAPN14 (11732068_a_at) / RFU TMCC2 (11721928_a_at) / Fold change /veh TMCC2 (11721928_a_at) / RFU IRGQ (11745062_a_at) / Fold change /veh IRGQ (11745062_a_at) / RFU FAM174B (11720279_a_at) / Fold change /veh FAM174B (11720279_a_at) / RFU TMPRSS4 (11748680_a_at) / Fold change /veh TMPRSS4 (11748680_a_at) / RFU FAM212B (11763350_a_at) / Fold change /veh FAM212B (11763350_a_at) / RFU PLEKHG5 (11743358_a_at) / Fold change /veh PLEKHG5 (11743358_a_at) / RFU ZSCAN30 (11745921_a_at) / Fold change /veh ZSCAN30 (11745921_a_at) / RFU CMKLR1 (11741424_a_at) / Fold change /veh CMKLR1 (11741424_a_at) / RFU LOC101060620 /// MAPK8IP1 (11723275_at) / Fold change /veh LOC101060620 /// MAPK8IP1 (11723275_at) / RFU SPTSSB (11747773_x_at) / Fold change /veh SPTSSB (11747773_x_at) / RFU PRSS12 (11739890_at) / Fold change /veh PRSS12 (11739890_at) / RFU BIN1 (11741810_x_at) / Fold change /veh BIN1 (11741810_x_at) / RFU WNT11 (11732464_a_at) / Fold change /veh WNT11 (11732464_a_at) / RFU C10orf10 (11716521_a_at) / Fold change /veh C10orf10 (11716521_a_at) / RFU C5orf56 (11738089_at) / Fold change /veh C5orf56 (11738089_at) / RFU CYB561 (11721691_x_at) / Fold change /veh CYB561 (11721691_x_at) / RFU ANKRD19P (11752326_a_at) / Fold change /veh ANKRD19P (11752326_a_at) / RFU OR2T12 /// OR2T33 /// OR2T8 (11738714_s_at) / Fold change /veh OR2T12 /// OR2T33 /// OR2T8 (11738714_s_at) / RFU VCAN (11748164_a_at) / Fold change /veh VCAN (11748164_a_at) / RFU JSRP1 (11732532_at) / Fold change /veh JSRP1 (11732532_at) / RFU KRTAP10-11 (11738290_x_at) / Fold change /veh KRTAP10-11 (11738290_x_at) / RFU MYO3A (11730013_a_at) / Fold change /veh MYO3A (11730013_a_at) / RFU EBF3 (11725865_a_at) / Fold change /veh EBF3 (11725865_a_at) / RFU CAMK2N1 (11719241_x_at) / Fold change /veh CAMK2N1 (11719241_x_at) / RFU C5orf56 (11738088_a_at) / Fold change /veh C5orf56 (11738088_a_at) / RFU OLFML3 (11715873_a_at) / Fold change /veh OLFML3 (11715873_a_at) / RFU LOC100653217 /// NTM (11731650_a_at) / Fold change /veh LOC100653217 /// NTM (11731650_a_at) / RFU MAPK11 (11762145_a_at) / Fold change /veh MAPK11 (11762145_a_at) / RFU FIZ1 (11724087_x_at) / Fold change /veh FIZ1 (11724087_x_at) / RFU OASL (11726364_x_at) / Fold change /veh OASL (11726364_x_at) / RFU SOX15 (11748057_x_at) / Fold change /veh SOX15 (11748057_x_at) / RFU CD79A (11719716_a_at) / Fold change /veh CD79A (11719716_a_at) / RFU HIST1H1D (11736915_at) / Fold change /veh HIST1H1D (11736915_at) / RFU CASKIN2 (11723855_a_at) / Fold change /veh CASKIN2 (11723855_a_at) / RFU LOC730098 (11760151_x_at) / Fold change /veh LOC730098 (11760151_x_at) / RFU OR4N2 (11742367_at) / Fold change /veh OR4N2 (11742367_at) / RFU PRRT2 (11749266_a_at) / Fold change /veh PRRT2 (11749266_a_at) / RFU SNX32 (11753110_a_at) / Fold change /veh SNX32 (11753110_a_at) / RFU CDHR5 (11726645_a_at) / Fold change /veh CDHR5 (11726645_a_at) / RFU RCAN1 (11760418_a_at) / Fold change /veh RCAN1 (11760418_a_at) / RFU FAM167A (11723789_a_at) / Fold change /veh FAM167A (11723789_a_at) / RFU FAM26E (11764081_at) / Fold change /veh FAM26E (11764081_at) / RFU ISYNA1 (11749810_s_at) / Fold change /veh ISYNA1 (11749810_s_at) / RFU ACY1 (11761880_at) / Fold change /veh ACY1 (11761880_at) / RFU 11764098_at / Fold change /veh 11764098_at / RFU SAMD14 (11745864_x_at) / Fold change /veh SAMD14 (11745864_x_at) / RFU NPB (11741838_a_at) / Fold change /veh NPB (11741838_a_at) / RFU TMPRSS6 (11731388_a_at) / Fold change /veh TMPRSS6 (11731388_a_at) / RFU KRTAP10-2 (11738614_at) / Fold change /veh KRTAP10-2 (11738614_at) / RFU ARHGAP8 /// PRR5-ARHGAP8 (11727945_x_at) / Fold change /veh ARHGAP8 /// PRR5-ARHGAP8 (11727945_x_at) / RFU KRTAP5-7 /// NADSYN1 (11734609_at) / Fold change /veh KRTAP5-7 /// NADSYN1 (11734609_at) / RFU RASL12 (11751679_a_at) / Fold change /veh RASL12 (11751679_a_at) / RFU CDKN2B (11736163_a_at) / Fold change /veh CDKN2B (11736163_a_at) / RFU PRF1 (11729649_at) / Fold change /veh PRF1 (11729649_at) / RFU, ZNF638 /// ZNF638-IT1 / Fold change vs veh, ZNF638 /// ZNF638-IT1 / RFU, PANK3 / Fold change vs veh, PANK3 / RFU, SH3YL1 / Fold change vs veh, SH3YL1 / RFU, ZEB2 / Fold change vs veh, ZEB2 / RFU, NRIP1 / Fold change vs veh, NRIP1 / RFU, PTTG1IP / Fold change vs veh, PTTG1IP / RFU, CAPN2 / Fold change vs veh, CAPN2 / RFU, MED14 / Fold change vs veh, MED14 / RFU, SNORA58 / Fold change vs veh, SNORA58 / RFU, C1orf63 / Fold change vs veh, C1orf63 / RFU, LRRFIP1 / Fold change vs veh, LRRFIP1 / RFU, NDUFAF7 / Fold change vs veh, NDUFAF7 / RFU, SLC12A2 / Fold change vs veh, SLC12A2 / RFU, IBTK / Fold change vs veh, IBTK / RFU, ESF1 / Fold change vs veh, ESF1 / Fold change vs veh, TMEM50B / RFU, TAOK1 / Fold change vs veh, TAOK1 / RFU, ACBD3 / Fold change vs veh, ACBD3 / RFU, TMA16 / Fold change vs veh, TMA16 / RFU, RWDD3 / Fold change vs veh, RWDD3 / RFU, BCAT1 / Fold change vs veh, BCAT1 / RFU, EDEM3 / Fold change vs veh, EDEM3 / RFU, TMEM33 / Fold change vs veh, TMEM33 / RFU, WDR75 / Fold change vs veh, WDR75 / RFU, AHCTF1 / Fold change vs veh, AHCTF1 / RFU, TFRC / Fold change vs veh, TFRC / RFU, ZDHHC17 / Fold change vs veh, ZDHHC17 / RFU, NOM1 / Fold change vs veh, NOM1 / RFU, ARL8B / Fold change vs veh, ARL8B / RFU, ZBTB11 / Fold change vs veh, ZBTB11 / RFU, TAMM41 / Fold change vs veh, TAMM41 / RFU, KIAA1704 /// LOC100996395 / Fold change vs veh, KIAA1704 /// LOC100996395 / RFU, ING1 / Fold change vs veh, ING1 / RFU, TRMT61B / Fold change vs veh, TRMT61B / RFU, FUBP3 / Fold change vs veh, FUBP3 / RFU, TP53 / Fold change vs veh, TP53 / RFU, TNKS2 / Fold change vs veh, TNKS2 / RFU, ZFP14 / Fold change vs veh, ZFP14 / RFU, ACTR2 / Fold change vs veh, ACTR2 / RFU, PPP3R1 / Fold change vs veh, PPP3R1 / RFU, PIK3R1 / Fold change vs veh, PIK3R1 / RFU, HNRNPA1 / Fold change vs veh, HNRNPA1 / RFU, RNF170 / Fold change vs veh, RNF170 / RFU, ZNF28 / Fold change vs veh, ZNF28 / RFU, RNGTT / Fold change vs veh, RNGTT / RFU, OGT / Fold change vs veh, OGT / RFU, BRD1 / Fold change vs veh, BRD1 / RFU, MARS / Fold change vs veh, MARS / RFU, ZNF655 / Fold change vs veh, ZNF655 / RFU, FAHD1 / Fold change vs veh, FAHD1 / RFU, BDP1 / Fold change vs veh, BDP1 / RFU, LRRCC1 / Fold change vs veh, LRRCC1 / RFU, ARID1A / Fold change vs veh, ARID1A / RFU, ZNF146 / Fold change vs veh, ZNF146 / RFU, ZNF330 / Fold change vs veh, ZNF330 / RFU, GPN3 / Fold change vs veh, GPN3 / RFU, C9orf123 / Fold change vs veh, C9orf123 / RFU, N4BP2L2 / Fold change vs veh, N4BP2L2 / RFU, ARFIP1 / Fold change vs veh, ARFIP1 / RFU, FAM179B / Fold change vs veh, FAM179B / RFU, BCL10 / Fold change vs veh, BCL10 / RFU, UHRF1BP1L / Fold change vs veh, UHRF1BP1L / RFU, BET1 / Fold change vs veh, BET1 / RFU, CNOT2 / Fold change vs veh, CNOT2 / RFU, ZNF268 / Fold change vs veh, ZNF268 / Fold change vs veh, ZNF507 / RFU, DGCR2 / Fold change vs veh, DGCR2 / RFU, WDSUB1 / Fold change vs veh, WDSUB1 / Fold change vs veh, HSP90B1 /// MIR3652 / RFU, ADSS / Fold change vs veh, ADSS / RFU, GK / Fold change vs veh, GK / RFU, ZNF148 / Fold change vs veh, ZNF148 / RFU, TAF9 / Fold change vs veh, TAF9 / RFU, SLC1A5 / Fold change vs veh, SLC1A5 / RFU, SLMO2 / Fold change vs veh, SLMO2 / RFU, ABCC4 / Fold change vs veh, ABCC4 / RFU, LOC101060439 /// RAP1B / Fold change vs veh, LOC101060439 /// RAP1B / RFU, RFX7 / Fold change vs veh, RFX7 / RFU, GTPBP10 / Fold change vs veh, GTPBP10 / RFU, CNEP1R1 / Fold change vs veh, CNEP1R1 / RFU, BIVM-ERCC5 /// ERCC5 / Fold change vs veh, BIVM-ERCC5 /// ERCC5 / RFU, ILF3 / Fold change vs veh, ILF3 / RFU 11762660_at / Fold change /veh 11762660_at / RFU VCAN (11757783_s_at) / Fold change /veh VCAN (11757783_s_at) / RFU DDX43 (11728927_at) / Fold change /veh DDX43 (11728927_at) / RFU KRT8 (11758188_x_at) / Fold change /veh KRT8 (11758188_x_at) / RFU NKD1 (11759106_at) / Fold change /veh NKD1 (11759106_at) / RFU SRD5A1 (11742802_a_at) / Fold change /veh SRD5A1 (11742802_a_at) / RFU TPSAB1 /// TPSB2 (11721975_s_at) / Fold change /veh TPSAB1 /// TPSB2 (11721975_s_at) / RFU GSTM3 (11746129_a_at) / Fold change /veh GSTM3 (11746129_a_at) / RFU IL23R (11737362_x_at) / Fold change /veh IL23R (11737362_x_at) / RFU TMEM51 (11727254_a_at) / Fold change /veh TMEM51 (11727254_a_at) / RFU PIWIL2 (11732686_x_at) / Fold change /veh PIWIL2 (11732686_x_at) / RFU ORM1 (11744905_x_at) / Fold change /veh ORM1 (11744905_x_at) / RFU CCDC152 (11743942_at) / Fold change /veh CCDC152 (11743942_at) / RFU ECM1 (11717891_a_at) / Fold change /veh ECM1 (11717891_a_at) / RFU IL23R (11748794_a_at) / Fold change /veh IL23R (11748794_a_at) / RFU TNFAIP8L3 (11732012_x_at) / Fold change /veh TNFAIP8L3 (11732012_x_at) / RFU MBOAT4 (11741988_at) / Fold change /veh MBOAT4 (11741988_at) / RFU 11764193_at / Fold change /veh 11764193_at / RFU TMEM53 (11763286_at) / Fold change /veh TMEM53 (11763286_at) / RFU MAGEB2 (11727129_at) / Fold change /veh MAGEB2 (11727129_at) / RFU TMEM200A (11744735_a_at) / Fold change /veh TMEM200A (11744735_a_at) / RFU CCDC152 (11751479_a_at) / Fold change /veh CCDC152 (11751479_a_at) / RFU FAM211A (11726209_a_at) / Fold change /veh FAM211A (11726209_a_at) / RFU RGS16 (11746705_a_at) / Fold change /veh RGS16 (11746705_a_at) / RFU VCAN (11755009_s_at) / Fold change /veh VCAN (11755009_s_at) / RFU RHOB (11743442_s_at) / Fold change /veh RHOB (11743442_s_at) / RFU RGS16 (11720943_a_at) / Fold change /veh RGS16 (11720943_a_at) / RFU RGS16 (11720944_at) / Fold change /veh RGS16 (11720944_at) / RFU, VPS4B / Fold change vs veh, VPS4B / RFU, CREB1 / Fold change vs veh, CREB1 / RFU, DNAJC13 / Fold change vs veh, DNAJC13 / RFU, GNAQ / Fold change vs veh, GNAQ / RFU, CDK5R1 / Fold change vs veh, CDK5R1 / RFU, ZRANB3 / Fold change vs veh, ZRANB3 / RFU, CUL4A / Fold change vs veh, CUL4A / RFU, CCNY / Fold change vs veh, CCNY / RFU, UFL1 / Fold change vs veh, UFL1 / RFU, COG3 / Fold change vs veh, COG3 / RFU, DIAPH2 / Fold change vs veh, DIAPH2 / RFU, SKA2 / Fold change vs veh, SKA2 / RFU, AFF3 / Fold change vs veh, AFF3 / RFU, LMF1 / Fold change vs veh, LMF1 / RFU, IPO11 / Fold change vs veh, IPO11 / RFU, DFFB / Fold change vs veh, DFFB / RFU, FOXP1 / Fold change vs veh, FOXP1 / RFU, CARD8 / Fold change vs veh, CARD8 / RFU, STRN3 / Fold change vs veh, STRN3 / RFU, ADK / Fold change vs veh, ADK / RFU, RASSF2 / Fold change vs veh, RASSF2 / RFU, WIPF1 / Fold change vs veh, WIPF1 / RFU, LARP1B / Fold change vs veh, LARP1B / RFU, RASA1 / Fold change vs veh, RASA1 / RFU, RB1 / Fold change vs veh, RB1 / RFU, PPFIA1 / Fold change vs veh, PPFIA1 / RFU, MAT2A / Fold change vs veh, MAT2A / RFU, CCT5 / Fold change vs veh, CCT5 / RFU, WDR92 / Fold change vs veh, WDR92 / RFU, CUX1 / Fold change vs veh, CUX1 / RFU, TTC7A / Fold change vs veh, TTC7A / RFU, TMEM135 / Fold change vs veh, TMEM135 / RFU, DEPTOR / Fold change vs veh, DEPTOR / RFU, CPM / Fold change vs veh, CPM / RFU, DNAJB6 / Fold change vs veh, DNAJB6 / RFU, CACNA2D3 / Fold change vs veh, CACNA2D3 / RFU, DTX4 / Fold change vs veh, DTX4 / RFU, TFCP2 / Fold change vs veh, TFCP2 / RFU, GMCL1 /// GMCL1P1 / Fold change vs veh, GMCL1 /// GMCL1P1 / RFU, AEBP2 / Fold change vs veh, AEBP2 / RFU, SNHG1 /// SNORD22 /// SNORD25 /// SNORD26 /// SNORD27 /// SNORD28 /// SNORD29 /// SNORD31 / Fold change vs veh, SNHG1 /// SNORD22 /// SNORD25 /// SNORD26 /// SNORD27 /// SNORD28 /// SNORD29 /// SNORD31 / Fold change (Aza/veh), C12orf56 (ProbeSet 11735607_a_at) / Fold change (ACY-1035/veh), C12orf56 (ProbeSet 11735607_a_at) / Fold change (Aza/veh), FGFR1OP (ProbeSet 11751329_s_at) / Fold change (ACY-1035/veh), FGFR1OP (ProbeSet 11751329_s_at) / Fold change (Aza/veh), VPS36 (ProbeSet 11739960_a_at) / Fold change (ACY-1035/veh), VPS36 (ProbeSet 11739960_a_at) / RFU SYPL1 (11715823_x_at) / Fold change /veh SYPL1 (11715823_x_at) / RFU IGFBP7 (11715501_s_at) / Fold change /veh IGFBP7 (11715501_s_at) / RFU REEP3 (11722064_at) / Fold change /veh REEP3 (11722064_at) / RFU IGLL1 (11728026_x_at) / Fold change /veh IGLL1 (11728026_x_at): dose or concentration left out as unconfirmed. The following applies: ProbeSet 11753055_s_at; LIST B.

Take `Nc1ncn([C@@H]2O[C@H](CO)[C@@H](O)[C@H]2O)c(=O)n1` [azacitidine]: the “Fold change vs veh, LOC101060439 /// RAP1B” value was 0.86.
